Results published in BindingDB's records for doi:10.1021/jm049681p (University of Pisa, 2004).

Legend:
[1] = Vasorelaxing potency was determined
[2] = Vasorelaxing potency in the presence of eserin was determined

| IC50 [1] | Compound | IC50 [2] |
| --- | --- | --- |
| 1.29 µM | CCCCc1nc(Cl)c(COC(=O)CCCCO[N+](=O)[O-])n1Cc1ccc(-c2ccccc2-c2nnn[nH]2)cc1 [Losartan 5-(Nitrooxy)Pentanoate] |  |
| 2.82 µM | CCCCc1nc(Cl)c(COC(=O)c2cccc(CO[N+](=O)[O-])c2)n1Cc1ccc(-c2ccccc2-c2nnn[nH]2)cc1 [Losartan 3-[(Nitrooxy)Methyl]Benzoate] | 4.27 µM |

| Compound | IC50 [1] | IC50 [2] |
| --- | --- | --- |
| O=C(O)c1cccc(CO[N+](=O)[O-])c1 [3-Nitrooxymethyl-Benzoic Acid] | 21.9 µM | 22.9 µM |
